From US20160067211A1, “PHARMACEUTICAL COMPOSITION” (Eberhard Karls Universitaet Tuebingen Medizinische Fakultaet, priority 2013, published 2016)

Tests used:
[1] = test system: SK-MEL-28 melanoma cells; assay: MUH proliferation assay, SK-MEL-28; type: cell-based, human; conditions: SK-MEL-28, addition of 5 μM IM-54 to 6-PN/8-PN treatment
Experimental: (§1) FIG. 5: real time cell monitoring of BLM and SK-MEL-28 melanoma cells treated with 6-PN and 8-PN. (A) BML and SK-MEL-28 cells were treated 24 hours after seeding with different concentrations of 6-PN and 8-PN (20 μM, 50 μM and 100 μM) over a 104 hour time period. The cellular impedance was measured over the entire observation time using the xCELLigence™ SP system and is depicted by the cell index (CI). All CI-values were normalized shortly before the treatment started. […] As a positive control, Triton X-100 0.1% was used to induce cell death. Shown are the mean±SD of three independent experiments, each performed in triplicates (B, C). […] Shown are the mean±SD; the experiments were performed in quadruplicates. (D) The MUH proliferation assay was repeated unter the same treatment conditions on primary human fibroblasts (FF868) and melanocytes (HEM1).
(§2) The cells were seeded in triplicates in 96-well plates at a density of 2,500 cells per well in 50 μl medium (5×10^4 cells per milliliter). […] Plates were incubated at 37° C. for 1 hour and measured in a Fluoroskan II (Lab Systems, Helsinki, Finland) with a […]. The intensity of fluorescence indicates the number of viable cells in the wells. […]

[2] = test system: BLM melanoma cells; assay: MUH proliferation assay, BLM; type: cell-based, human; conditions: addition of 5 μM IM-54 to 6-PN/8-PN treatment
Experimental: as §1, §2

[3] = test system: primary human fibroblasts (FF868); assay: MUH proliferation assay, fibroblasts; type: cell-based; conditions: 6-PN, 8-PN 0.1 μM to 100 μM; TSA, SAHA 100 μM
Experimental: as §1
(§3) The cells were seeded in triplicates in 96-well plates at a density of 2,500 cells per well in 50 μl medium (5×10^4 cells per milliliter). After 24 hours, the medium was replaced by medium containing 6-PN, 8-PN (dissolved in DMSO), TSA (dissolved in EtOH) or SAHA (dissolved in DMSO) at the concentrations to be tested with or without the addition of the necrosis inhibitor IM-54 at 5 μM (Calbiochem, Darmstadt, Germany). Cells treated with culture medium without or with DMSO served as controls. The assay was started following an incubation of 24 hours. […] Plates were incubated at 37° C. for 1 hour and measured in a Fluoroskan II (Lab Systems, Helsinki, Finland) with a […]. The intensity of fluorescence indicates the number of viable cells in the wells.
(§4) Next it was asked whether the PNs also influence the proliferation of benign cells. To this end, human fibroblasts (FF) and foreskin melanocytes (HEM1) were treated with the same concentrations of 6-PN and 8-PN, and proliferation was assessed using the proliferation assay as described above.

[4] = test system: foreskin melanocytes (HEM1); assay: MUH proliferation assay, melanocytes; type: cell-based; conditions: 6-PN, 8-PN at higher concentrations (0.1 μM to 100 μM tested); TSA, SAHA 100 μM
Experimental: as §1, §3, §4

[5] = test system: cleaved caspase-3 in SK-MEL-28 melanoma cells; assay: Western blot for cleaved caspase-3; type: cell-based, human; conditions: SK-MEL-28, 100 μM
Experimental: Western blot analysis of SK-MEL-28 melanoma cells treated with 100 μM of 6-PN, 8-PN, SAHA or TSA. EtOH and DMSO were applied as controls.
The following antibodies were used: Anti-Vinculin and Anti-Actin (1:5000, Sigma-Aldrich), Anti-Acetyl-Histon H3 (1:5000, Millipore, Billerica, USA), Anti-Caspase-3 (1:1000), Anti-AKT, Anti-pAKT, Anti-ERK, Anti-pERK, […], Anti-p70S6 Kinase, and Anti-pS6 protein (1:1000), all from Cell Signaling, Frankfurt, Germany), Anti-LC3 (1:5000, Sigma-Aldrich).
To further analyze the type of cell death induced by 6-PN and 8-PN, western blot analyses of SK-MEL-28 melanoma cells were performed 1, 2, 4, 12 and 24 hours after the treatment with 100 μM 6-PN and 8-PN. […] Upon PN treatment an inconsistent expression of oncogenic AKT and phospho-AKT (pAKT) was detected. […] Thus, there was an obvious discrepancy between the expression of pAKT and pS6P. Therefore it was first also looked for the expression of P70S6 kinase and its phosphorylated form. […] Therefore it was next asked whether the S6P could be phosphorylated by a different mechanism. In this respect, activated ERK can phosphorylate the p90 ribosomal S6 kinase (pP90). pP90 also phosphorylates the S6P (in addition to the P70S6 kinase). Since the pP70S6 kinase was absent in the used cells (SK-MEL-28 and BLM), it was hypothesized that the phosphorylation of the S6P was conducted via the pERK/pP90 pathway, independent from the P70S6 signalling. This hypothesis was supported by the parallel down-regulation of the bands for pP90 (Thr359/Ser363) and pS6P 12 hours after the treatment with 6-PN, and the reappearance of both bands after 24 hours (FIG. 8). […] The western blot experiments were repeated with BLM cells under the same treatment conditions and yielded similar results (not shown).

[6] = test system: SK-MEL-28 melanoma cells; assay: PI/Annexin V staining FACS, SK-MEL-28; type: cell-based, human; conditions: SK-MEL-28, 10 μM, 6 hours treatment
Experimental: (§5) (A) Cell cycle FACS analyses of PI stained BLM and SK-MEL-28 melanoma cells. 100 μM of 8-PN-induced a G2 arrest in both cells. (B) FACS analyses of BLM and SK-MEL-28 melanoma cells treated with 100 μM 6-PN or 8-PN and stained for annexin V/PI; staurosporin was used as control for apoptosis induction and DMSO as vehicle control. […] (C) BLM and SK-MEL-28 melanoma cells were treated with 100 μM of PNs; TSA, SAHA and EMSO were used as controls.
(§6) To further analyze the possibility of apoptosis induction, an extensive apoptosis assay was performed on SK-MEL-28 melanoma cells 4 hours after treatment with 100 μM 6-PN or 8-PN (FIG. 9). […] This was verified by FACS cell cycle analyses to screen for a possible increase of the sub-G1 fraction of cells (apoptotic cells) or for the induction of a G2 arrest (inhibition of proliferation). […] To further differentiate between the induction of apoptosis and/or necrosis an PI/Annexin V staining of SK-MEL-28 and BLM cells was performed 4 hours and 24 hours after the treatment with 6-PN or 8-PN; 10 μM staurosporin (6 hours treatment) was used as positive control for the induction of apoptosis; DMSO treatment was used as vehicle control. The cells were then analyzed by FACS.

[7] = test system: BLM melanoma cells; assay: PI/Annexin V staining FACS, BLM; type: cell-based, human; conditions: 10 μM, 6 hours treatment
Experimental: as §5, §6

Row | Compound | fibroblast proliferation [3] | melanocyte proliferation [4] | band for cleaved caspase-3 [5] | also measured
1 | CCCCCNC1=C(c2cn(C)c3ccccc23)C(=O)N(C)C1=O [IM-54] |  |  |  | decrease of cell death rates at higher PN concentrations [1]: up to 35%; decrease of cell death rates at higher PN concentrations [2]: up to 35%
2 | O=C(CCCCCCC(=O)Nc1ccccc1)NO [SAHA, suberoyl anilide hydroxamic acid] | no reduced proliferation | no reduced proliferation | no additional band | 
3 | CC(/C=C/C(=O)NO)=C\[C@@H](C)C(=O)c1ccc(N(C)C)cc1 [TSA, trichostatin A] | no reduced proliferation | no reduced proliferation | no additional band | 
4 | CN[C@@H]1C[C@H]2O[C@@](C)([C@@H]1OC)n1c3ccccc3c3c4c(c5c6ccccc6n2c5c31)C(=O)NC4 [staurosporin, reference compound] |  |  |  | annexin V positive (apoptotic) cells ([6]; DMSO control 2.5%): 13.9%; PI positive (nectrotic) cells ([6]; DMSO control 7.9%): 9.3%; annexin V positive (apoptotic) cells ([7]; DMSO control 4.1%): 17.4%; PI positive (nectrotic) cells ([7]; DMSO control 9.1%): 16.6%
